According to ChEMBL document CHEMBL1128889, “Preparation and biological evaluation of -Trifluoromethyl-,-unsaturated carbonyl compounds” (Bioorg Med Chem Lett, 1995):
Values after ≈ are worked out from the molar mass of the structure shown.

Experiment: In vitro viable cell inhibitory towards interleukin-2 antiproducing effect was determined.
Type: functional

In the case of CC1(C)OC[C@H]([C@H](OC(=O)/C=C/C(F)(F)F)[C@@H](OC(=O)/C=C/C(F)(F)F)[C@H]2COC(C)(C)O2)O1, the IC50 is reported as 0.8 µg/mL (≈ 1.58 µM).

Work on CC1(C)COC(=O)[C@@H]1OC(=O)/C=C/C(F)(F)F yielded an IC50 of 3.71 µg/mL (≈ 14.7 µM).
